Test results published in patent publication US8716478B2, “Boron-containing small molecules” (Anacor Pharmaceuticals, Inc., priority 2010, dated 2014).
Read-outs that look alike come from different tables or passages of the source.

What was measured:
[1] = Pharmacokinetics and oral bioavailability after IV and PO dosing; assay type: in vivo, female CD-1 mice; settings: plasma; for bioavailability / AUC: female, CD-1, mouse; for bioavailability: po; for AUC: 10 mg/kg oral suspension dose; for clearance: mouse, 5 mg/kg, female CD-1 mice, intravenous
Description: The objective of this study was to evaluate the pharmacokinetics and oral bioavailability of PDE4 inhibitors following intravenous (IV) administration and oral (PO) doses in female CD-1 mice.
After dosing, blood samples were collected through 24 h, twice from each animal at specific times (3 mice/time point), into microcentrifuge tubes containing K2EDTA (anticoagulant), stored on wet ice and processed for plasma. The plasma samples were analyzed for concentrations of parent compound by LC/MS/MS using an internal standard/peak area method. Pharmacokinetic analysis of the mean plasma concentration-time profiles following IV and PO administration was performed.
[…] Dosing solutions for intravenous administration were prepared in 55% PEG300/25% PG/20% water. Oral dosing used a suspension prepared in 1% CMC in water with 0.1% Tween 80.
After dosing, blood samples were collected through 24 h, twice from each animal via retro-orbital bleed (˜0.1 mL, 1st time point) or cardiac puncture (˜0.6 mL, 2nd time point) at specific times (3 mice/time point), into microcentrifuge tubes containing K2EDTA (anticoagulant) and stored on wet ice prior to processing.
Plasma was prepared by centrifugation of blood samples for 6 min at approximately 2000×g or 6000 rpm at 4° C. All processed plasma samples (˜50 μL and 300 μL) were transferred to analysis tubes, placed on dry ice immediately and later stored at −80° C. until analysis for concentrations of experimental compound by LC/MS/MS.
Mouse IV clearance, Mouse Oral AUC and Oral Bioavailability are provided below. 6-(1-Hydroxy-1,3-dihydrobenzo[c][1,2]oxaborol-5-yloxy)-2-(2-isopropoxyethoxy)nicotinonitrile (D140) and 6-(1-hydroxy-1,3-dihydrobenzo[c][1,2]oxaborol-5-yloxy)-2-(4-oxopentyloxy)nicotinonitrile (D141) are disclosed in U.S. patent application Ser. No. 12/399,015, filed Mar. 5, 2009.

[2] = system: TNF-α in peripheral blood mononuclear cells (PBMCs); assay: TNF-α inhibition in LPS-stimulated peripheral blood mononuclear cells; assay type: cell-based; settings: PBMC
Description: Peripheral blood mononuclear cells (PBMCs) pooled from 10-20 donors were obtained from a local blood bank, ficoll gradient purified, and stored frozen in liquid nitrogen. Cells were thawed and seeded into 96-well plates at 5×10^5 cells/well in RPMI 1640 with 10% heat-inactivated fetal calf serum (MediaTech, Inc, Hearndon, Va., USA), Test articles were evaluated at the indicated concentrations in 150 μL media containing <2% DMSO, final, with stimulant and PBMCs. Cells were stimulated with lipopolysaccharide (LPS, phenol-extract from E. coli, Sigma-Aldrich, St. Louis, Mo.) at 1 μg/mL. Stimulation was with LPS for 24 h to measure TNF-α. Cytokines in supernatants were analyzed with a FACSArray flow cytometer (BD Biosciences, San Jose, Calif., USA) using the BD Cytometric Bead Array (CBA) Flex Set (BD Biosciences). IC50 values were calculated using the four parameter logistic equation.

human PDE4 enzyme = assay: Phosphodiesterase 4 (PDE4) inhibition, semi-purified enzyme from human U937 cells; assay type: biochemical
TNF-α = assay: In vivo TNF-α release in LPS treated mice; design: species or system Swiss Webster mice
Description: In vivo TNF-α release was measured in Swiss Webster mice, 10/group. Animals were dosed via oral gavage with drug 1% CMC suspension. Thirty minutes later LPS, 1.5 mg/kg was administered by intraperitoneal injection. Ninety minutes later animals were sacrificed, blood was collected by exsangination and serum prepared for analysis. TNF-α concentration was assessed by ELISA, non-drug treated animals had TNF-α levels 1000-3000 pg/mL. 6-(1-Hydroxy-1,3-dihydrobenzo[c][1,2]oxaborol-5-yloxy)-2-(2-isopropoxyethoxy)nicotinonitrile (D140) and 6-(1-hydroxy-1,3-dihydrobenzo[c][1,2]oxaborol-5-yloxy)-2-(4-oxopentyloxy)nicotinonitrile (D141) are disclosed in U.S. patent application Ser. No. 12/399,015, filed Mar. 5, 2009.

[3] = PBMCs, LPS 1 μg/mL for 24 h, read-out: Proinflammatory TNF-α IC50
[4] = 1 μM cAMP, 20 minutes at 25° C., read-out: PDE4 IC50

Row | bioavailability [1] [%] | AUC [1] [ng·h/mL] | clearance [1] [mL/min/kg] | SMILES | IC50 [2, 3] [nM] | IC50 (human PDE4 enzyme; [4]) [nM] | IC50 ([2]; under similar conditions, read-out: TNF-α IC50 value) [nM] | % Inhibition of TNFa Blood Levels in LPS Treated Mice (TNF-α; Oral Dose 3 mg/kg) [%] | % Inhibition of TNFa Blood Levels in LPS Treated Mice (TNF-α; Oral Dose 10 mg/kg) [%] | % Inhibition of TNFa Blood Levels in LPS Treated Mice (TNF-α; Oral Dose 30 mg/kg) [%] | IC50 (human PDE4 enzyme; under similar conditions, read-out: PDE4 IC50 value) [nM]
1 | 65 | 11200 | 9.85 | CC(C)OCCOc1nc(Oc2ccc3c(c2)COB3O)c(C(F)(F)F)cc1C#N [Compound D238, 6-(1-Hydroxy-1,3-dihydrobenzo[e][1,2]oxaborol-5-yloxy)-2-(2-isopropoxyethoxy)-5-(trifluoromethyl)nicotinonitrile] | 1.1 |  |  |  |  |  | 
2 | 58 | 110000 | 1.05 | CC(C)OCCOc1nc(Oc2cc(F)c3c(c2)COB3O)cc(C(F)(F)F)c1C#N [Compound D254, 6-(7-fluoro-1-hydroxy-1,3-dihydrobenzo[c][1,2]oxaborol-5-yloxy)-2-(2-isopropoxyethoxy)-4-(trifluoromethyl)nicotinonitrile] | 3.5 |  |  |  |  |  | 
3 |  |  |  | CC(=O)CCCOc1nc(Oc2ccc3c(c2)COB3O)c(C#N)cc1Cl [Compound D253, 5-Chloro-2-(1-hydroxy-1,3-dihydrobenzo[c][1,2]oxaborol-5-yloxy)-6-(4-oxopentyloxy)nicotinonitrile] | 0.57 | 0.25 |  |  |  |  | 
4 | 100 | 13600 | 23.3 | CC(=O)CCCOc1nc(Oc2ccc3c(c2)COB3O)c(C#N)cc1C#N [Compound D244, 2-(1-Hydroxy-1,3-dihydrobenzo[c][1,2]oxaborol-5-yloxy)-6-(4-oxopentyloxy)pyridine-3,5-dicarbonitrile] | 0.21 |  |  |  |  |  | 
5 |  |  |  | N#Cc1cc(Cl)c(Oc2ccc3c(c2)COB3O)nc1OCCOC1CC1 [Compound D239, 5-Chloro-2-(2-cyclopropoxyethoxy)-6-(1-hydroxy-1,3-dihydrobenzo[c][1,2]oxaborol-5-yloxy)nicotinonitrile] | 0.65 | 1.3 |  |  |  |  | 
6 |  | 6300 | 44.5 | [2H]C1([2H])OB(O)c2ccc(Oc3nc(OCCOC(C)C)c(C#N)cc3Cl)cc21 [Compound D251, 5-Chloro-6-(3,3-dideuterio-1-hydroxy-1,3-dihydrobenzo[c][1,2]oxaborol-5-yloxy)-2-(2-isopropoxyethoxy)nicotinonitrile] | 2.3 |  |  |  |  |  | 
7 | 71 | 17000 | 7.83 | CC(=O)CCCOc1nc(Oc2cc3c(cc2F)B(O)OC3)c(Cl)cc1C#N [Compound D250, 5-Chloro-6-(6-fluoro-1-hydroxy-1,3-dihydrobenzo[c][1,2]oxaborol-5-yloxy)-2-(4-oxopentyloxy)nicotinonitrile] | 0.41 |  |  |  |  |  | 
8 |  |  |  | CC(=O)CCCOc1nc(Oc2cc(C)c3c(c2)COB3O)c(Cl)cc1C#N [Compound D246, 5-Chloro-6-(1-hydroxy-7-methyl-1,3-dihydrobenzo[c][1,2]oxaborol-5-yloxy)-2-(4-oxopentyloxy)nicotinonitrile] | 11 | 1.3 |  |  |  |  | 
9 | 100 | 3300 | 59.1 | CC(C)OCCOc1nc(Oc2cc3c(cc2F)B(O)OC3)c(Cl)cc1C#N [Compound D249, 5-Chloro-6-(6-fluoro-1-hydroxy-1,3-dihydrobenzo[c][1,2]oxaborol-5-yloxy)-2-(2-isopropoxyethoxy)nicotinonitrile] | 2.3 |  |  |  |  |  | 
10 |  | 5840 | 20.2 | N#Cc1cc(Cl)c(Oc2ccc3c(c2)COB3O)nc1OCCOC(F)(F)F [Compound D235] | 2.2 |  |  |  |  |  | 
11 |  |  |  | Cc1cc(Oc2nc(OCCOC(C)C)c(C#N)cc2Cl)cc2c1B(O)OC2 [Compound D245, 5-Chloro-6-(1-hydroxy-7-methyl-1,3-dihydrobenzo[c][1,2]oxaborol-5-yloxy)-2-(2-isopropoxyethoxy)nicotinonitrile] | 26 | 2 |  |  |  |  | 
12 | 100 | 6920 | 26.8 | CC(C)OCCOc1nc(Oc2ccc3c(c2)COB3O)c(C2CC2)cc1C#N [Compound D237, 5-cyclopropyl-6-(1-hydroxy-1,3-dihydrobenzo[c][1,2]oxaborol-5-yloxy)-2-(2-isopropoxyethoxy)nicotinonitrile] | 1.5 |  |  |  |  |  | 
13 | 100 | 5620 | 34.2 | CC(=O)CCCOc1nc(Oc2ccc3c(c2)COB3O)c(C2CC2)cc1C#N [Compound D236, 5-cyclopropyl-6-(1-hydroxy-1,3-dihydrobenzo[c][1,2]oxaborol-5-yloxy)-2-(4-oxopentyloxy)nicotinonitrile] | 0.34 |  |  |  |  |  | 
14 |  |  |  | COCC(COc1nc(Oc2ccc3c(c2)COB3O)c(Cl)cc1C#N)OC (centres unmarked) [Compound D232, 5-Chloro-2-(2,3-dimethoxypropoxy)-6-(1-hydroxy-1,3-dihydrobenzo[c][1,2]oxaborol-5-yloxy)nicotinonitrile] | 98 | 23 |  |  |  |  | 

Row | SMILES | bioavailability [1] [%] | AUC [1] [ng·h/mL] | clearance [1] [mL/min/kg] | IC50 [2, 3] [nM] | IC50 (human PDE4 enzyme; [4]) [nM] | IC50 ([2]; under similar conditions, read-out: TNF-α IC50 value) [nM] | % Inhibition of TNFa Blood Levels in LPS Treated Mice (TNF-α; Oral Dose 3 mg/kg) [%] | % Inhibition of TNFa Blood Levels in LPS Treated Mice (TNF-α; Oral Dose 10 mg/kg) [%] | % Inhibition of TNFa Blood Levels in LPS Treated Mice (TNF-α; Oral Dose 30 mg/kg) [%] | IC50 (human PDE4 enzyme; under similar conditions, read-out: PDE4 IC50 value) [nM]
15 | CC(=O)CCCOc1nc(Oc2cc(F)c3c(c2)COB3O)c(Cl)cc1C#N [Compound D248, 5-Chloro-6-(7-fluoro-1-hydroxy-1,3-dihydrobenzo[c][1,2]oxaborol-5-yloxy)-2-(4-oxopentyloxy)nicotinonitrile] | 79 | 91000 | 1.83 | 0.93 | 1.7 |  |  |  |  | 
16 | CC(=O)CCCOc1nc(Oc2ccc3c(c2)COB3O)cc(C(F)(F)F)c1C#N [Compound D242, 6-(1-Hydroxy-1,3-dihydrobenzo[c][1,2]oxaborol-5-yloxy)-2-(4-oxopentyloxy)-4-(trifluoromethyl)nicotinonitrile] | 15 | 590 | 567 | 0.21 | 2.2 |  |  |  |  | 
17 | CC(C)OCCOc1nc(Oc2ccc3c(c2)COB3O)c(C#N)cc1C#N [Compound D243, 2-(1-Hydroxy-1,3-dihydrobenzo[c][1,2]oxaborol-5-yloxy)-6-(2-isopropoxyethoxy)pyridine-3,5-dicarbonitrile] | 96 | 3900 | 50 | 1.1 | 6.5 |  |  |  |  | 
18 | CC(C)OCCOc1nc(Oc2cc(F)c3c(c2)COB3O)c(Cl)cc1C#N [Compound D247, 5-Chloro-6-(7-fluoro-1-hydroxy-1,3-dihydrobenzo[c][1,2]oxaborol-5-yloxy)-2-(2-isopropoxyethoxy)nicotinonitrile] | 100 | 21000 | 18.3 | 2.9 | 19 |  |  |  |  | 
19 | CC(C)OCCOc1nc(Oc2ccc3c(c2)COB3O)cc(C(F)(F)F)c1C#N [Compound D241, 6-(1-hydroxy-1,3-dihydrobenzo[c][1,2]oxaborol-5-yloxy)-2-(2-isopropoxyethoxy)-4-(trifluoromethyl)nicotinonitrile] | 100 | 14900 | 14.2 | 2.9 | 1.1 |  |  |  |  | 
20 | CC(=O)CCCOc1nc(Oc2ccc3c(c2)COB3O)ccc1C#N [Compound D141, 6-(1-hydroxy-1,3-dihydrobenzo[c][1,2]oxaborol-5-yloxy)-2-(4-oxopentyloxy)nicotinonitrile, reference compound] | 32 | 1300 | 43.3 |  |  | 1.2 | 36.1 | 52.4 | 67.1 | 3.1
